System: broad-leaf weeds and grass weeds
Assay: General screening of herbicidal activity in greenhouse;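 note: 0 means no visible effect and 100 means all weeds dead or not emerged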
Type: in vivo
Details: 1000 g a.i./hm^2
Method: Determination of herbicidal activity of compounds of the present invention against weeds was carried out by the following procedures:
Seeds of monocotyledonous and dicotyledonous weeds were sown in nutrition soil in paper pot (7 cm diameter), covered with soil in 1 cm and grown in the greenhouse under good growth conditions (temperature, atmospheric humidity, water supply). The compounds of the present invention as emulsifiable concentrate, were applied in pre-emergence and post-emergence treatment by track sprayer (Engineer Research Ltd., pressure 1.95 kg/cm^2, volume 500 L/hm^2, track speed 1.48 km/h). Pre-emergence treatment was conducted after seeding 24 hours and post-emergence treatment was done when the respective weeds reached predetermined leaf stage (grass weed 2- to 3-leaf stage, broad-leaf weed 2- to 4-leaf stage), the state of growth of the respective weeds were visually observed to determine the growth inhibition rate (%) in accordance with the following evaluation standard.
Growth inhibition rate (%): 0=no discernible action: 100=all weeds dead or not emerged.

Structure (SMILES) | pre-emergence and post-emergence herbicidal activity against broad-leaf weeds and grass weeds
Cn1c(C(F)(F)F)cc(=O)n(-c2cc(C3=NOC(C)(CO)C3)c(Cl)cc2F)c1=O (centres unmarked) [Compound 42] | good
Cn1c(C(F)(F)F)cc(=O)n(-c2ccc(Cl)c(C3=NOC(C)(COC(=O)C4CC4)C3)c2)c1=O (centres unmarked) [Compound 323] | good
Cn1c(C(F)(F)F)cc(=O)n(-c2ccc(Cl)c(C3=NOC(C)(COC(=O)CCc4ccccc4)C3)c2)c1=O (centres unmarked) [Compound 333] | good
Cn1c(C(F)(F)F)cc(=O)n(-c2ccc(Cl)c(C3=NOC(C)(COC(=O)c4cc(Oc5ccc(C(F)(F)F)cc5Cl)ccc4[N+](=O)[O-])C3)c2)c1=O (centres unmarked) [Compound 345] | good
COC(=O)C1CCN(C(=O)C2(C)CC(c3cc(-n4c(=O)cc(C(F)(F)F)n(C)c4=O)c(F)cc3Cl)=NO2)CC1 (centres unmarked) [Compound 35] | good
CN(C)S(=O)(=O)OCC1(C)CC(c2cc(-n3c(=O)cc(C(F)(F)F)n(C)c3=O)c(F)cc2Cl)=NO1 (centres unmarked) [Compound 96] | good
Cn1c(C(F)(F)F)cc(=O)n(-c2ccc(Cl)c(C3=NOC(C)(COS(C)(=O)=O)C3)c2)c1=O (centres unmarked) [Compound 366] | good
Cn1c(C(F)(F)F)cc(=O)n(-c2cc(C3=NOC(C)(CBr)C3)c(Cl)cc2F)c1=O (centres unmarked) [Compound 99] | good
CC(C)NC(=O)C1(C)CC(c2cc(-n3c(=O)cc(C(F)(F)F)n(C)c3=O)c(F)cc2Cl)=NO1 (centres unmarked) [Compound 26] | good
Cn1c(C(F)(F)F)cc(=O)n(-c2ccc(Cl)c(C3=NOC(C)(COC(=O)CCl)C3)c2)c1=O (centres unmarked) [Compound 328] | good
CSCCC(=O)OCC1(C)CC(c2cc(-n3c(=O)cc(C(F)(F)F)n(C)c3=O)ccc2Cl)=NO1 (centres unmarked) [Compound 332] | good

— patent publication US10550111B2, “Pyrimidine urea compound containing isoxazolines and use thereof” (SHENYANG SINOCHEM AGROCHEMICALS R&D CO., LTD, priority 2014, dated 2020)
